Among the data in PubChem BioAssay AID179 (DTP/NCI, 2004) are EC50, IC50 and outcome values, retold here.

The term EC50 denotes the concentration at which the effect is half-maximal. A word on the IC50: it is the concentration that inhibits the measured activity by half.

“And” between values parts separate entries of the source, which are not always exact repeats. Identical values can stand only once. The source made the active and inactive calls.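 The calls were made as follows: active = compounds giving half or more protection of infected cells from virus-caused growth loss, again on retest; inactive = the rest.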 Where a SMILES comes first, the peptide text is derived from it. [ ]: non-standard residue; d: D form. The star is where a group is joined. NMeF = CN[CH](Cc1ccccc1)C(=O)O; NMeV = CN[CH](C(=O)O)C(C)C; Boc = CC(C)(C)OC(=O)* Some results are limits rather than exact numbers.

The assay relates to CEM cells HIV-1 protection, formazan growth assay. Briefly: NCI AIDS Antiviral Assay. The note with it: for IC50: measured here: growth of uninfected CEM cells. Summed up: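 Protection of CEM cells against HIV-1 measured as cell growth via soluble formazan read-out, with five concentrations tested on both infected and uninfected cells; failure to protect may reflect toxicity.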

With `CC(=O)OCCSSCCOC(C)=O`, the EC50 was greater than 200 µM and the IC50 was 89.1 µM.
For `CN(C)c1ccc(/C=C/C=C\C2=CC(=C\C=C/C=C3C=CC(=[N+](C)C)C=C3)/Sc3ccccc32)cc1`, the EC50 was greater than 1.78 µM and the IC50 is greater than 1.78 µM.
For `O=C1C=C2C(=CCOC2O)O1` (configuration not stated), the EC50 is greater than 16.2 µM and the IC50 is 0.191 µM.
For `COC(=O)CNC(=O)C(CC(C)C)NC(=O)C(CC(C)C)NC(=O)OC(C)(C)C` (stereo not drawn) (Boc-Leu-Leu-Gly-OMe; configuration not given here), the outcome was inactive.
Consider `N#CCCN(CCC#N)c1ccc(C(=O)NN)cc1`, for which the EC50 was greater than 363 µM and the IC50 is 288 µM.
On to `COc1cc2c(cc1OC)C/C(=N\O)c1cc(OC)c(OC)cc1/C=C\2`, for which the EC50 is greater than 200 µM and the half-inhibitory concentration (IC50) was found to be 1.74 µM.
Take `CC(=O)c1c(-c2ccc(Cl)cc2)c(C#N)c(=S)n(C2OC(CO)C(O)C(O)C2O)c1-c1ccccc1` (configuration not stated): the EC50 was greater than 200 µM; the IC50 is 28.2 µM and 14.1 µM.
`Clc1ccccc1C1SCc2nc3ccccc3n21` (configuration not stated): the outcome was inactive.
The same measure, in the same setting: the value for `CN(C)/C=C/c1c2c(nc3ccccc13)C(=O)c1cccnc1C2=O` was “inactive”.
Take `CC1(C)C=[N+]([O-])C(C)(C)N1`: the EC50 is greater than 200 µM and the IC50 was greater than 200 µM.
Consider `COc1cc(OC)c(C#N)c(OC)c1C`, for which the result was inactive.
As for `CC(=O)[C@@]1(c2ccccc2)N(C(=O)c2ccccc2)[C@@]1(C)C(=O)c1ccccc1`, the EC50 is greater than 646 µM and the IC50 came out at 562 µM.
The like results for `CCOC(=O)C1=NN(c2ccccc2)C(=O)/C1=C\N1C(=S)NC(=O)/C1=C\c1cccc([N+](=O)[O-])c1` were, in that order, greater than 200 µM and 89.1 µM.
The like results for `Nn1c(N=Nc2c(O)[nH]c3ccccc23)n[nH]c1=S` were, in that order, greater than 33.9 µM and greater than 33.9 µM.
`O=C(CC(C(=O)c1cccs1)c1cccs1)c1ccccc1Cl` (configuration not stated): the EC50 was greater than 200 µM and the IC50 worked out at 18.6 µM.
With `N#CC(C(=O)CCC(=O)Nc1cccc(C(F)(F)F)c1)c1ccccc1` (configuration not stated), the EC50 was greater than 692 µM and the IC50 is greater than 692 µM.
Turning to `COC(=O)c1ccc(CO/N=C(\c2ccccc2)c2cccnc2)cc1`, the EC50 is greater than 200 µM and the IC50 worked out at 47.9 µM.
Regarding `CC(=O)NC(CS)C(=O)NC(CO)C(=O)NC(CO)C(=O)NC(Cc1c[nH]c2ccccc12)C(=O)N1CCCC1C(=O)NC(CO)C(=O)NC(Cc1c[nH]c2ccccc12)C(=O)NC(Cc1c[nH]cn1)C(=O)NC(CO)C(=O)NC(Cc1c[nH]c2ccccc12)C(=O)NCC(=O)NCC(=O)NC(C)C(=O)NC(CCC(N)=O)C(=O)NC(CCCCN)C(=O)NC(C)C(=O)NC(CCCNC(=N)N)C(=O)NC(CCCCN)C(N)=O` (configuration not stated) (Ac-CSSWPSWHSWGGAQKARK-NH2; configuration not given here), the EC50 was greater than 20 µM and the IC50 worked out at 17.4 µM.
Turning to `Cc1cc(NS(=O)(=O)c2ccc(N=[N+]([O-])c3ccc(S(=O)(=O)Nc4cc(C)on4)cc3)cc2)no1`, the EC50 was greater than 200 µM and the IC50 was greater than 200 µM.
As to `COc1cc(-c2cc(=O)c3c(OC)c(OC)c(OC)c(OC)c3o2)cc(OC)c1OC`, the EC50 is greater than 200 µM and the IC50 was determined as 28.2 µM.
For `N#C/C(=C\c1ccco1)C(N)=O`, in that order: greater than 200 µM and greater than 200 µM.
The like results for `NC1CC(n2ccc(=O)[nH]c2=O)OC1C(O)CO` (configuration not stated) were, in that order, greater than 100 µM and greater than 100 µM.
The like results for `COc1ccc(CCNC(=S)N/C=C(\C#N)S(=O)(=O)c2ccc(C)cc2)cc1OC` were, in that order, greater than 200 µM and greater than 200 µM.
On to `CC(C)C1=CC(=O)C(C)(C2=NC(C)(C)CO2)c2ccccc21` (configuration not stated), for which the EC50 is greater than 437 µM and the IC50 was greater than 437 µM.
Regarding `O=C1CCC2(CC(Br)C(=O)c3ccccc32)C(=O)N1` (configuration not stated), the EC50 was greater than 407 µM and the IC50 came to 81.3 µM.
For `COc1cc(C)c(O)c(C[P+](c2ccccc2)(c2ccccc2)c2ccccc2)c1`, in that order: greater than 200 µM and 11.7 µM.
In the case of `COc1ccc2c(c1)O[C@@H]1c3ccc(OC)cc3OC[C@H]21`, the outcome was inactive.
With `CCCCN(S(=O)(=O)c1ccccc1)S(=O)(=O)c1ccccc1`, the EC50 was greater than 200 µM and the IC50 is greater than 200 µM.
Turning to `CC1CN=C(Nc2ccc(F)c(Cl)c2)S1` (configuration not stated), the EC50 was greater than 200 µM and the IC50 is 132 µM.
The like results for `O=C(Nc1ccc(C(F)(F)F)cc1[N+](=O)[O-])C(=O)Nn1c(=S)[nH]c2ccccc2c1=O` were, in that order, greater than 79.4 µM and greater than 79.4 µM.
Turning to `O=C1NC2CCC(C2)C1c1ccccc1` (configuration not stated), the result was inactive.
Still for that read-out and setting: the value for `CCN1C[C@]2(COC(=O)c3ccccc3N3C(=O)CC(C)C3=O)CCC(OC)C34[C@@H]5C[C@@H]6C(OC)[C@@H]5[C@](O)(C[C@@H]6OC)[C@@](O)([C@H]13)[C@@H](OC)[C@@H]42` (some centres not stated) was “inactive”.
With `COc1ccc(C2c3cc4c(cc3OC(N3CCOCC3)C2C)OCO4)c(OC)c1` (configuration not stated), the EC50 was greater than 200 µM and the IC50 was determined as 3.31 µM.
On to `CC(C)NC(=O)/C=C/C=C/c1ccc(Cl)cc1`, for which the EC50 was greater than 28.8 µM and the IC50 is greater than 28.8 µM.
With `CCN(CC)CCNc1ccc([N+](=O)[O-])c2nc3ccc(OC)cc3c(NCCN(CC)CC)c12`, the EC50 is greater than 100 µM and the IC50 turned out to be 0.178 µM.
For `CCOC(=O)/C(C#N)=C/c1cccc([N+](=O)[O-])c1`, in that order: greater than 21.4 µM and greater than 21.4 µM.
As to `NC(=O)c1cn(C2OC(CO)C(O)C2O)c(=O)[nH]c1=O` (configuration not stated), the EC50 is greater than 871 µM and the IC50 was greater than 871 µM.
Take `CNC(=O)OCc1c(COC(=O)NC)c2n(c1C)CSC2`: the EC50 is greater than 200 µM and the IC50 was 8.13 µM.
For `CSC1=N/C(=C\c2ccc(Cl)cc2)C(=O)N1CN1CCCCC1`, in that order: greater than 200 µM and greater than 200 µM.
The like results for `Cn1/c(=N\S(=O)(=O)c2ccccc2)n(S(=O)(=O)c2ccccc2)c2ccccc21` were, in that order, greater than 200 µM and greater than 200 µM.
Consider `O=C(O)C(O)C(O)C(=O)O` (configuration not stated), for which the EC50 is greater than 200 µM and the IC50 is greater than 200 µM.
Consider `O=[N+]([O-])c1ccc2c(c1)C(N1CCN(CCO)CC1)Cc1ccc(F)cc1S2` (configuration not stated), for which the EC50 is greater than 200 µM and the IC50 came out at 22.4 µM.
For `COc1ccc(N=Nc2ccc3oc(=O)c(C(=O)Nc4ccc(OC)cc4)cc3c2)cc1`, in that order: greater than 200 µM and 20 µM.
Consider `Cn1ccnc1CCc1ccc(Cl)cc1Cl`, for which the EC50 was greater than 708 µM and the IC50 was found to be 70.8 µM.
As for `CCCCCCCCCCCCCC(=O)NCO`, the outcome was inactive.
In the case of `O=C1CCC2(c3ccc(F)cc3)Nc3ccc(Cl)cc3N12` (configuration not stated), the EC50 is greater than 61.7 µM and the IC50 is 45.7 µM.
With `CNC1c2ccccc2C(=O)c2cc3c(cc21)OCCOCCOCCOCCO3` (configuration not stated), the EC50 was greater than 200 µM and the IC50 worked out at 36.3 µM.
The like results for `c1ccc(N=C2c3ccccc3C3=NCCCN32)cc1` were, in that order, greater than 100 µM and greater than 100 µM.
For `COc1ccc(/C=C2/CSC/C(=C/c3ccc(OC)c(OC)c3)C2=O)cc1OC`, in that order: greater than 9.12 µM and 4.9 µM.
For `Nc1cc(Cl)cc2cc(Cl)cnc12`, in that order: greater than 200 µM and 117 µM.
In the case of `CCOC(=O)CC(=O)C(=O)NNC1=NCCCN1`, the EC50 is greater than 200 µM and the IC50 was greater than 200 µM.
Regarding `CC1(c2ccc3cccc(F)c3c2)OC(=O)c2ccccc21` (configuration not stated), the result was inactive.
As to `CCCCn1c(C)c(C)c2c1NN=C(C#N)S2(=O)=O`, the EC50 is greater than 200 µM and the IC50 was greater than 200 µM.
`O=S(Nc1ccccc1)c1ccc(Cl)cc1` (configuration not stated): the EC50 was greater than 200 µM and the IC50 was found to be 81.3 µM.
The like results for `Cc1ccc(SS(=O)(=O)c2ccc(C)cc2)cc1` were, in that order, greater than 38 µM and 6.61 µM.
For `COc1ccc(N2C(=O)C(C#N)=C(SC)C(C#N)C2=O)cc1` (configuration not stated), in that order: greater than 200 µM and 174 µM.
Take `COc1nc2nc[nH]c2c(=O)[nH]1`: the outcome was inactive.
Turning to `Nc1c(S(=O)(=O)c2ccc(Cl)cc2)c2nc3ccccc3nc2n2ccnc12`, the EC50 is 151 µM and the IC50 is greater than 200 µM.
For `O=C1CC(CC(O)C2CCCC2O)CC(=O)N1` (configuration not stated), in that order: greater than 200 µM and greater than 200 µM.
The like results for `COc1cc(/C=C(\OC(C)=O)c2ccc3c(c2)OCO3)cc(OC)c1OC` were, in that order, greater than 126 µM and 52.5 µM.
The like results for `Cc1n(CC(=O)c2ccccc2)nc2sc(N)n[n+]12` were, in that order, greater than 200 µM and 123 µM.
Turning to `O=C1C2CC3OC3CC2C(=O)N1CN1C(=O)C2CC3OC3CC2C1=O` (configuration not stated), the EC50 is greater than 200 µM and the IC50 is greater than 200 µM.
Turning to `Cc1cc2c(cc1C)NC1=C(N2)OC(c2ccccc2C)C1=O` (configuration not stated), the EC50 was greater than 81.3 µM and the IC50 was greater than 81.3 µM.
Turning to `CO[C@H]1C=CO[C@@]2(C)Oc3c(C)c(O)c4c(O)c(c(CN5CCN(C)CC5)c(O)c4c3C2=O)NC(=O)/C(C)=C\C=C[C@H](C)[C@H](O)C(C)[C@@H](O)C(C)[C@H](OC(C)=O)[C@@H]1C` (some centres not stated), the outcome was inactive.
On to `O=C(O)/C=C/C(=O)Nc1ccccc1`, for which the EC50 was greater than 200 µM and the IC50 is greater than 200 µM.
Take `O=C(O)c1ccc(S(=O)(=O)c2ccccc2[N+](=O)[O-])cc1`: the EC50 is greater than 200 µM and the IC50 is greater than 200 µM.
As to `CC(C)C(NC(=O)OC(C)(C)C)C(=O)N(C)C(Cc1ccccc1)C(=O)N(C)C(C(=O)N(C)C(C(=O)O)C(C)C)C(C)C` (configuration not stated) (Boc-V[NMeF][NMeV][NMeV]-OH; configuration not given here), the EC50 was greater than 200 µM and the IC50 was greater than 200 µM.
Regarding `Cc1cc(C)nc(NS(=O)(=O)c2ccc(NC(=O)c3ccc4nc5ccccc5c(Nc5ccc(S(=O)(=O)Nc6nc(C)cc(C)n6)cc5)c4c3)cc2)n1`, the EC50 is greater than 200 µM and the IC50 stood at 29.5 µM.
The like results for `COc1cc(Br)c(C=Nc2cccc3cc(OC)c(OC)cc23)cc1OC` were, in that order, greater than 31.6 µM and greater than 31.6 µM.
